Data as given in US8507478B2, “Oxazolidinyl antibiotics” (Actelion Pharmaceuticals Ltd., priority 2008, dated 2013).
In brackets after ≈: the same amount, converted by molar mass.

system: M. catarrhalis A894; assay: MIC determination by microdilution in cation-adjusted Mueller-Hinton Broth; assay type: cell-based; details: Moraxella catarrhalis, microdilution method, CLSI M7-A7
Procedure: Minimal inhibitory concentrations (MICs; mg/l) were determined in cation-adjusted Mueller-Hinton Broth by a microdilution method following the description given in “Methods for Dilution Antimicrobial Susceptibility Tests for Bacteria that Grow Aerobically”, Approved standard, 7th ed., Clinical and Laboratory Standards Institute (CLSI) Document M7-A7, Wayne, Pa., USA, 2006. All Example compounds were tested against several Gram positive and Gram negative bacteria such as S. aureus, E. faecalis, S. pneumoniae, M catarrhalis, A. baumanii, E.coli or P. aeruginosa.

Row | SMILES | MIC
1 | COc1ccc2ccc(=O)n(CC3(O)CCN(C[C@@H]4CN(c5ccc6c(c5)NC(=O)CS6)C(=O)O4)C3)c2c1 (mixture of isomers) [Example 18, 6-{(R)-5-[(RS)-3-hydroxy-3-(7-methoxy-2-oxo-2H-quinolin-1-ylmethyl)pyrrolidin-1-ylmethyl]-2-oxo-oxazolidin-3-yl}-4H-benzo[1,4]thiazin-3-one] | ≤ 0.031 µg/mL
2 | COc1ccc2ccc(=O)n(CC3(O)CCN(C[C@H]4CN(c5ccc6c(c5)NC(=O)CS6)C(=O)O4)C3)c2c1 (mixture of isomers) [Example 19, 6-{(S)-5-[(RS)-3-hydroxy-3-(7-methoxy-2-oxo-2H-quinolin-1-ylmethyl)pyrrolidin-1-ylmethyl]-2-oxo-oxazolidin-3-yl}-4H-benzo[1,4]thiazin-3-one] | ≤ 0.031 µg/mL
3 | COc1ccc2ccc(=O)n(CC3(O)CCN(CC[C@H]4CN(c5ccc6c(c5)NC(=O)CS6)C(=O)O4)C3)c2c1 (mixture of isomers) [Example 20, 6-((S)-5-{2-[(RS)-3-hydroxy-3-(7-methoxy-2-oxo-2H-quinolin-1-ylmethyl)-pyrrolidin-1-yl]-ethyl}-2-oxo-oxazolidin-3-yl)-4H-benzo[1,4]thiazin-3-one] | ≤ 0.031 µg/mL
4 | COc1ccc2ccc(=O)n(CC3(O)CCN(CC[C@@H]4CN(c5ccc6c(c5)NC(=O)CS6)C(=O)O4)C3)c2c1 (mixture of isomers) [Example 21, 6-((R)-5-{2-[(RS)-3-hydroxy-3-(7-methoxy-2-oxo-2H-quinolin-1-ylmethyl)-pyrrolidin-1-yl]-ethyl}-2-oxo-oxazolidin-3-yl)-4H-benzo[1,4]thiazin-3-one] | ≤ 0.031 µg/mL
5 | COc1ccc2ccc(=O)n(CC3(O)CN(C[C@@H]4CN(c5ccc6c(c5)NC(=O)CS6)C(=O)O4)C3)c2c1 [Example 1, 6-{(R)-5-[3-hydroxy-3-(7-methoxy-2-oxo-2H-quinolin-1-ylmethyl)azetidin-1-ylmethyl]-2-oxo-oxazolidin-3-yl}-4H-benzo[1,4]thiazin-3-one] | ≤ 0.031 µg/mL
6 | COc1ccc2ccc(=O)n(CC3CN(C[C@@H]4CN(c5ccc6c(c5)NC(=O)CS6)C(=O)O4)C3)c2c1 [Example 2, 6-{(R)-5-[3-(7-methoxy-2-oxo-2H-quinolin-1-ylmethyl)-azetidin-1-ylmethyl]-2-oxo-oxazolidin-3-yl}-4H-benzo[1,4]thiazin-3-one] | ≤ 0.031 µg/mL
7 | COc1ccc2ccc(=O)n(CC3CN(C[C@@H]4CN(c5ccc6c(c5)OCCO6)C(=O)O4)C3)c2c1 [Example 3, 1-{1-[(R)-3-(2,3-dihydro-benzo[1,4]dioxin-6-yl)-2-oxo-oxazolidin-5-ylmethyl]-azetidin-3-ylmethyl}-7-methoxy-1H-quinolin-2-one] | 0.063 µg/mL (≈ 0.132 µM)
8 | COc1ccc2ncc(=O)n(CC3CN(C[C@@H]4CN(c5ccc6c(c5)NC(=O)CS6)C(=O)O4)C3)c2c1 [Example 4, 6-{(R)-5-[3-(7-methoxy-2-oxo-2H-quinoxalin-1-ylmethyl)-azetidin-1-ylmethyl]-2-oxo-oxazolidin-3-yl}-4H-benzo[1,4]thiazin-3-one] | ≤ 0.031 µg/mL
9 | COc1ccc2ccc(=O)n(CC3CN(CC[C@@H]4CN(c5ccc6c(c5)NC(=O)CS6)C(=O)O4)C3)c2c1 [Example 5, 6-((R)-5-{2-[3-(7-methoxy-2-oxo-2H-quinolin-1-ylmethyl)-azetidin-1-yl]-ethyl}-2-oxo-oxazolidin-3-yl)-4H-benzo[1,4]thiazin-3-one] | ≤ 0.031 µg/mL
10 | COc1ccc2ncc(=O)n(CC3CN(CC[C@@H]4CN(c5ccc6c(c5)NC(=O)CS6)C(=O)O4)C3)c2c1 [Example 6, 6-((R)-5-{2-[3-(7-methoxy-2-oxo-2H-quinoxalin-1-ylmethyl)-azetidin-1-yl]-ethyl}-2-oxo-oxazolidin-3-yl)-4H-benzo[1,4]thiazin-3-one] | ≤ 0.031 µg/mL
11 | COc1ccc2ccc(=O)n(CC3CCN(C[C@@H]4CN(c5ccc6c(c5)NC(=O)CS6)C(=O)O4)CC3)c2c1 [Example 7, 6-{(R)-5-[4-(7-methoxy-2-oxo-2H-quinolin-1-ylmethyl)-piperidin-1-ylmethyl]-2-oxo-oxazolidin-3-yl}-4H-benzo[1,4]thiazin-3-one] | ≤ 0.031 µg/mL
12 | COc1ccc2ccc(=O)n(CC3CCN(C[C@@H]4CN(c5ccc6c(c5)OCCO6)C(=O)O4)CC3)c2c1 [Example 8, 1-{1-[(R)-3-(2,3-dihydro-benzo[1,4]dioxin-6-yl)-2-oxo-oxazolidin-5-ylmethyl]-piperidin-4-ylmethyl}-7-methoxy-1H-quinolin-2-one] | 1 µg/mL (≈ 1.98 µM)
13 | COc1ccc2ccc(=O)n(CC3CCN(C[C@@H]4CN(c5ccc(C)c(F)c5)C(=O)O4)CC3)c2c1 [Example 9, 1-{1-[(R)-3-(3-fluoro-4-methyl-phenyl)-2-oxo-oxazolidin-5-ylmethyl]-piperidin-4-ylmethyl}-7-methoxy-1H-quinolin-2-one] | 1 µg/mL (≈ 2.09 µM)
14 | COc1ccc2c(c1)N(CC1CN(C[C@@H]3CN(c4ccc5c(c4)NC(=O)CS5)C(=O)O3)C1)C(=O)CC2 [Example 10, 6-{(R)-5-[3-(7-methoxy-2-oxo-3,4-dihydro-2H-quinolin-1-ylmethyl)azetidin-1-ylmethyl]-2-oxo-oxazolidin-3-yl}-4H-benzo[1,4]thiazin-3-one] | ≤ 0.031 µg/mL
15 | COc1ccc2c(c1)N(CC1CN(C[C@H]3CN(c4ccc5c(c4)NC(=O)CS5)C(=O)O3)C1)C(=O)CC2 [Example 11, 6-{(S)-5-[3-(7-methoxy-2-oxo-3,4-dihydro-2H-quinolin-1-ylmethyl)azetidin-1-ylmethyl]-2-oxo-oxazolidin-3-yl}-4H-benzo[1,4]thiazin-3-one] | ≤ 0.031 µg/mL
16 | COc1ccc2c(c1)N(CC1CN(C[C@@H]3CN(c4ccc5c(c4)NC(=O)CO5)C(=O)O3)C1)C(=O)CC2 [Example 12, 6-{(R)-5-[3-(7-methoxy-2-oxo-3,4-dihydro-2H-quinolin-1-ylmethyl)azetidin-1-ylmethyl]-2-oxo-oxazolidin-3-yl}-4H-benzo[1,4]oxazin-3-one] | 0.5 µg/mL (≈ 1.02 µM)
17 | COc1ccc2ncc(=O)n(CC3CN(C[C@@H]4CN(c5ccc6c(c5)NC(=O)CO6)C(=O)O4)C3)c2c1 [Example 13, 6-{(R)-5-[3-(7-methoxy-2-oxo-2H-quinoxalin-1-ylmethyl)-azetidin-1-ylmethyl]-2-oxo-oxazolidin-3-yl}-4H-benzo[1,4]oxazin-3-one] | ≤ 0.031 µg/mL
18 | COc1ccc2ncc(=O)n(CC3CN(C[C@@H]4CN(c5ccc6c(c5)OCCO6)C(=O)O4)C3)c2c1 [Example 14, 1-{1-[(R)-3-(2,3-dihydro-benzo[1,4]dioxin-6-yl)-2-oxo-oxazolidin-5-ylmethyl]-azetidin-3-ylmethyl}-7-methoxy-1H-quinoxalin-2-one] | 0.25 µg/mL (≈ 0.522 µM)
19 | COc1ccc2ncc(=O)n(C3CCN(C[C@@H]4CN(c5ccc6c(c5)NC(=O)CS6)C(=O)O4)CC3)c2n1 [Example 15, 6-methoxy-4-[1-{(R)-2-oxo-3-(3-oxo-3,4-dihydro-2H-benzo[1,4]thiazin-6-yl)-oxazolidin-5-ylmethyl]-piperidin-4-yl}-4H-pyrido[2,3-b]pyrazin-3-one] | ≤ 0.031 µg/mL
20 | COc1ccc2ncc(=O)n(C3CCN(C[C@@H]4CN(c5ccc6c(c5)NC(=O)CO6)C(=O)O4)CC3)c2n1 [Example 16, 6-methoxy-4-{1-[(R)-2-oxo-3-(3-oxo-3,4-dihydro-2H-benzo[1,4]oxazin-6-yl)-oxazolidin-5-ylmethyl]-piperidin-4-yl}-4H-pyrido[2,3-b]pyrazin-3-one] | ≤ 0.031 µg/mL
21 | COc1ccc2ccc(=O)n(C[C@@H]3CCN(C[C@@H]4CN(c5ccc6c(c5)NC(=O)CS6)C(=O)O4)C3)c2c1 [Example 17, 6-{(R)-5-[(R)-3-(7-methoxy-2-oxo-2H-quinolin-1-ylmethyl)-pyrrolidin-1-ylmethyl]-2-oxo-oxazolidin-3-yl}-4H-benzo[1,4]thiazin-3-one] | ≤ 0.031 µg/mL
22 | COc1ccc2ncc(=O)n(C3CCN(C[C@@H]4CN(c5ccc6c(c5)OCCO6)C(=O)O4)CC3)c2n1 [Example 22, 4-{1-[(R)-3-(2,3-dihydro-benzo[1,4]dioxin-6-yl)-2-oxo-oxazolidin-5-ylmethyl]-piperidin-4-yl}-6-methoxy-4H-pyrido[2,3-b]pyrazin-3-one] | ≤ 0.031 µg/mL
23 | COc1ccc2ncc(=O)n(C3CCN(CC[C@H]4CN(c5ccc6c(c5)NC(=O)CS6)C(=O)O4)CC3)c2n1 [Example 23, 6-methoxy-4-(1-{2-[(S)-2-oxo-3-(3-oxo-3,4-dihydro-2H-benzo[1,4]thiazin-6-yl)-oxazolidin-5-yl]-ethyl}-piperidin-4-yl)-4H-pyrido[2,3-b]pyrazin-3-one] | ≤ 0.031 µg/mL
24 | COc1ccc2ncc(=O)n(C3CCN(C[C@@H]4CN(c5ccc(C)c(F)c5)C(=O)O4)CC3)c2n1 [Example 24, 4-{1-[(R)-3-(3-fluoro-4-methyl-phenyl)-2-oxo-oxazolidin-5-ylmethyl]-piperidin-4-yl}-6-methoxy-4H-pyrido[2,3-b]pyrazin-3-one] | ≤ 0.031 µg/mL
25 | COc1ccc2ncc(=O)n(C3CCN(CC[C@@H]4CN(c5ccc6c(c5)NC(=O)CS6)C(=O)O4)CC3)c2n1 [Example 25, 6-methoxy-4-(1-{2-[(R)-2-oxo-3-(3-oxo-3,4-dihydro-2H-benzo[1,4]thiazin-6-yl)-oxazolidin-5-yl]-ethyl}-piperidin-4-yl)-4H-pyrido[2,3-b]pyrazin-3-one] | ≤ 0.031 µg/mL
